From publication PMC8450076, “Structural and mechanistic insights into the Artemis endonuclease and strategies for its inhibition” (Nucleic Acids Research, 2021) come the findings set out here.

The target in assay [1] is T1, Artemis (SNM1C/DCLRE1C) (Homo sapiens, UniProt Q96SD1). In words: biochemical.
Target sequence in this assay (Q96SD1 whole entry, the tested form may be a part): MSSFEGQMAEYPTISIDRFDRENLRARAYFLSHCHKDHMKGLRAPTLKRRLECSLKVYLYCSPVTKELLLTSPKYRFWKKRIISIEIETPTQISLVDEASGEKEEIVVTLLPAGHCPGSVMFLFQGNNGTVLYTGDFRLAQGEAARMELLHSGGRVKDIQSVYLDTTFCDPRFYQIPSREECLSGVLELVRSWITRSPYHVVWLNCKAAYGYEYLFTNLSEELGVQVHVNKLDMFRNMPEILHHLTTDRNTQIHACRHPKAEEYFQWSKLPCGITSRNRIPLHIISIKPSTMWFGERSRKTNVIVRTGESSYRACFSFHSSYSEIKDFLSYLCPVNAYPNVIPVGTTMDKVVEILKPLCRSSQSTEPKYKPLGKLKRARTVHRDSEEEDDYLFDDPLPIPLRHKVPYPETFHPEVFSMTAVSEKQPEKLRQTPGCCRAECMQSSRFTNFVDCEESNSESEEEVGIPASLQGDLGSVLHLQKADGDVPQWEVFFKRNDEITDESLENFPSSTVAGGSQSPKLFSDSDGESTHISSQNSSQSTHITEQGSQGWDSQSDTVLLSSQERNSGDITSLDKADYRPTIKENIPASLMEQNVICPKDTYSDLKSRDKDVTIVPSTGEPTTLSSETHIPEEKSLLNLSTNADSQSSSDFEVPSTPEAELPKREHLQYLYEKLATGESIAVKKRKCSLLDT
Assay [2] deals with T1, Artemis (SNM1C/DCLRE1C). Nature of the assay: X-ray crystal structure ([…] Å) plus real-time fluorescence-based nuclease assay (IC50). The assay is classed as biochemical. More on the design: truncated Artemis catalytic domain, MBL-β-CASP (aa 1-361). The text has this: We solved a structure of ceftriaxone bound to Artemis
Target sequence in this assay (Q96SD1 1-361): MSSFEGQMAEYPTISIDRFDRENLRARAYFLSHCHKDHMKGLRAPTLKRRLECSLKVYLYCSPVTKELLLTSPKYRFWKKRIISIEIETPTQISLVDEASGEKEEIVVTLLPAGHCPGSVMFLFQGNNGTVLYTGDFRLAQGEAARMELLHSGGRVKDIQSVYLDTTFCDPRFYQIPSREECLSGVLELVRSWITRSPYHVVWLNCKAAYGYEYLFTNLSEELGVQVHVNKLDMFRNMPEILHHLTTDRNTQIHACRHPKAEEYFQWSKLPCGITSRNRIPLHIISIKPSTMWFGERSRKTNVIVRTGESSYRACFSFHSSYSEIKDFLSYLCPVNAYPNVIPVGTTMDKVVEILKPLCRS

`CC[P](CC)(CC)=[Au][S][C@@H]1O[C@H](COC(C)=O)[C@@H](OC(C)=O)[C@H](OC(C)=O)[C@H]1OC(C)=O` [auranofin] gave an IC50 against Artemis (SNM1C/DCLRE1C) [1] of 46 µM.
Turning to `CO/N=C(\C(=O)N[C@@H]1C(=O)N2C(C(=O)O)=C(CSc3nc(=O)c(=O)[nH]n3C)CS[C@H]12)c1csc(N)n1` [ceftriaxone], at Artemis (SNM1C/DCLRE1C) [2], the IC50 was 65 µM.
In the case of `CCN(CC)C(=S)SSC(=S)N(CC)CC` [disulfiram], on Artemis (SNM1C/DCLRE1C) [1] (read-out: IC50), the IC50 was approximately 10.8 µM.
The molecule `O=c1c2ccccc2[se]n1-c1ccccc1` [ebselen] had an IC50 on Artemis (SNM1C/DCLRE1C) [1] of approximately 8.5 µM.

A word on the IC50: it is the midpoint of a concentration-inhibition curve.
